The values below come from patent publication US7001905B2, “Substituted diarylamines as MEK inhibitors” (Warner-Lambert Company, priority 2000, dated 2006).

The target in series [1] is T1, MEK (Homo sapiens, UniProt Q02750).
T1 construct: no tag is given for the 2D mutant
The series can be described thus: in vitro MEK assay. The series is classed as biochemical. In short, it runs like this:
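GST-MEK (10 μg) or activated GST-MEK-2E (S218E/S222E, 5 μg) phosphorylates kinase-dead GST-MAPK-KA (K71A, 5 μg) with 10 μM [γ-32P]ATP in 50 mM Tris pH 7.5 for 15 min at 30 °C. Read-out: SDS-PAGE, autoradiography and scintillation counting of excised bands.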

T1 sequence (Q02750 whole entry S218D/S222D, form open): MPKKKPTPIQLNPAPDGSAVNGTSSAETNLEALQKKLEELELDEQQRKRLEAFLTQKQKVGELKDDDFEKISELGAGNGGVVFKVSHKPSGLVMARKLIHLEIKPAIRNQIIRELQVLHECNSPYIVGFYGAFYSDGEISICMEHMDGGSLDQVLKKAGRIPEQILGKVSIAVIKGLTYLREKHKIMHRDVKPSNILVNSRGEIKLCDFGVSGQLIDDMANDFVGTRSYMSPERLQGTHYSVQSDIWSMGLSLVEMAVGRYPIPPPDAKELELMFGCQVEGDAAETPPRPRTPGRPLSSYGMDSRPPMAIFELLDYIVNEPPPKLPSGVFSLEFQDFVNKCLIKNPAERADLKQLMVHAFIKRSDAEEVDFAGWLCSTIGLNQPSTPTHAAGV

In general, melting point refers to the temperature, or range, at which the solid turns liquid. One may read the IC50 as the concentration that gives 50% inhibition. A low value points to inhibition by little substance. `CNC(=O)c1cc2c(c(F)c1F)N(c1ccc(I)cc1C)COC2=O` [Example 2, 7,8-Difluoro-1-(4-iodo-2-methyl-phenyl)-4-oxo-1,4-dihydro-2H-benzo[d][1,3]oxazine-6-carboxylic acid methylamide] registered a melting point of 219 to 223 °C. Moreover, inhibition in series [1] was half-maximal at 6.6 µM (IC50). For `CNC(=O)c1cc(C(=O)O)c(Nc2ccc(I)cc2C)c(F)c1F` [Example 3, 4,5-Difluoro-6-(-4-iodo-2-methyl-phenylamino)-N-methyl-isophthalamic acid] the same measures were 254 to 259 °C and 2.4 µM. With `Cc1cc(I)ccc1Nc1c(C(=O)O)cc(C(=O)NC(C)CO)c(F)c1F` (stereo not drawn) [Example 87, 4,5-Difluoro-N-(2-hydroxy-1-methyl-ethyl)-6-(4-iodo-2-methyl-phenylamino)-isophthalamic acid], in series [1], the midpoint of inhibition, the IC50, lay at 2.2 µM and the “in vitro MEK assay: % inhibition @ 1 μM” value worked out at 66%. For `Cc1cc(I)ccc1Nc1c(C(=O)NOCC2CC2)cc(C(=O)N(C)C)c(F)c1F` [Example 6, N^1-Cyclopropylmethoxy-4,5-difluoro-6-(4-iodo-2-methyl-phenylamino)-N^3,N^3-dimethyl-isophthalamide], the melting point lay in the range of 78 to 80 °C. Further, the IC50 in series [1] was determined as 4.3 µM. As to `Cc1cc(I)ccc1N1COC(=O)c2cc(C(=O)N3CCSC3)c(F)c(F)c21` [Example 58, 7,8-Difluoro-1-(4-iodo-2-methyl-phenyl)-6-(thiazolidine-3-carbonyl)-1,2-dihydro-3,1-benzoxzin-4-one], in series [1], the “in vitro MEK assay: % inhibition @ 1 μM” value came out at 76%. On the same count and under the same terms, to `Cc1cc(I)ccc1Nc1c(C(=O)O)cc(C(=O)N2CCCCC2CO)c(F)c1F` (stereo not drawn) [Example 70, 3,4-Difluoro-5-[1-(2-hydroxymethyl-piperidin-1-yl)-methanoyl]-2-(4-iodo-2-methyl-phenylamino)-benzoic acid] belongs 49%. In turn, `CNC(=O)c1cc(C(=O)NOCC2CC2)c(Nc2ccc(I)cc2C)c(F)c1F` [Example 4, N^1-Cycloprolylmethoxy-4,5-difluoro-6-(4-iodo-2-methyl-phenylamino)-N^3-methyl-isophthalamide] came in with a melting point of 198 to 202 °C. Besides, the midpoint of inhibition in series [1], the IC50, lay at 1.1 µM.

As for `Cc1cc(I)ccc1Nc1c(C(=O)O)cc(C(=O)Nc2ccc(Cl)nc2)c(F)c1F` [Example 85, N-(6-Chloro-pyridin-3-yl)-4,5-difluoro-6-(4-iodo-2-methyl-phenylamino)-isophthalamic acid], in series [1], half-maximal inhibition (IC50) required 0.97 µM and the “in vitro MEK assay: % inhibition @ 1 μM” value worked out at 90%. Regarding `Cc1cc(I)ccc1Nc1c(C(=O)O)cc(C(=O)NCCCN2CCCC2=O)c(F)c1F` [Example 62, 4,5-Difluoro-6-(4-iodo-2-methyl-phenylamino)-N-[3-(2-oxo-pyrrolidin-1-yl)-propyl]-isophthalamic acid], in series [1], the “in vitro MEK assay: % inhibition @ 1 μM” value turned out to be 78%.
